# Experiments:
# [1] = Cytotoxicity against human HuH7 cells after 96 hrs by MTS assay; assay type: cell-based, Huh-7
# [2] = Cytotoxicity against human HepG2 cells after 96 hrs by MTS assay; assay type: cell-based
# Hepatitis C virus [3] = test: Antiviral activity against HCV infected in human HuH7 cells by cell-based replicon assay; assay type: functional, Hepacivirus hominis, Huh-7
# [4] = Cytotoxicity against human […] cells after 96 hrs by MTS assay; assay type: cell-based
# [5] = Cytotoxicity against human CEM cells after 96 hrs by MTS assay; assay type: cell-based; details: CEM (CCRF-CEM) cells
# Hepatitis C virus [6] = test: Antiviral activity against HCV harboring NS5B polymerase S282T mutant infected in human HuH7 cells by cell-based replicon assay; assay type: functional, Hepacivirus hominis, Huh-7
# Hepatocyte = test: Increase of cellular triphosphate level in human primary hepatocytes cells at 100 uM after 24 hrs by HPLC analysis; assay type: functional
# Huh-7 = test: Increase of cellular triphosphate level in human HuH7 cells at 100 uM after 48 hrs by HPLC analysis; assay type: functional
# [7] = Half life in human plasma; assay type: ADME, cell-free
# [8] = Half life in simulated gastrointestinal fluid; assay type: ADME
# CCRF-CEM [9] = test: Cytotoxicity against human CEM cells assessed as mitochondrial COX2 DNA level up to 100 uM after 14 days by RT-PCR analysis; assay type: cell-based; details: 336 h
# [10] = Half life in human liver S9 fraction; assay type: ADME, subcellular
# CCRF-CEM [11] = test: Cytotoxicity against human CEM cells assessed as mitochondrial rDNA level up to 100 uM after 14 days by RT-PCR analysis; assay type: cell-based; details: 336 h
# HepG2 [12] = test: Cytotoxicity against human HepG2 cells assessed as mitochondrial COX2 DNA level up to 100 uM after 14 days by RT-PCR analysis; assay type: cell-based; details: hepg2, 336 h
# HepG2 [13] = test: Cytotoxicity against human HepG2 cells assessed as mitochondrial rDNA level up to 100 uM after 14 days by RT-PCR analysis; assay type: cell-based; details: hepg2, 336 h
# [14] = Half life in simulated intestinal fluid; assay type: ADME
# Hepatitis C virus [15] = test: Antiviral activity against HCV by cell-based replicon assay; assay type: functional, Hepacivirus hominis
# [16] = Inhibition of HCV NS5B polymerase; design: species or system Hepacivirus hominis
Compound,CC50 at 96 h [1] [µM],CC50 at 96 h [2] [µM],"EC90 (Hepatitis C virus [3]; Hepatitis C virus, Huh-7) [µM]",CC50 at 96 h [4] [µM],CC50 at 96 h [5] [µM],also measured
CCOC(=O)[C@H](C)NP(=O)(OC[C@H]1O[C@@H](n2cnc3c(O)nc(N)nc32)[C@](C)(F)[C@@H]1O)Oc1ccccc1 (some centres not stated),> 100,> 100,2.38,> 100,> 100,
CCOC(=O)[C@H](C)NP(=O)(OC[C@H]1O[C@@H](n2cnc3c(OC)nc(N)nc32)[C@](C)(F)[C@@H]1O)Oc1ccccc1 (some centres not stated),> 100,62,0.0074,65,55,"EC90 (Hepatitis C virus [6]; Hepatitis C virus, Huh-7): 0.011 µM"
CCOC(=O)[C@H](C)NP(=O)(OC[C@H]1O[C@@H](n2cnc3c(OCC)nc(N)nc32)[C@](C)(F)[C@@H]1O)Oc1ccccc1 (some centres not stated),47,61,0.01,68,37,
CCCOc1nc(N)nc2c1ncn2[C@@H]1O[C@H](COP(=O)(N[C@@H](C)C(=O)OCC)Oc2ccccc2)[C@@H](O)[C@@]1(C)F (some centres not stated),,,0.013,,,
CCOC(=O)[C@H](C)NP(=O)(OC[C@H]1O[C@@H](n2cnc3c(OCCOC)nc(N)nc32)[C@](C)(F)[C@@H]1O)Oc1ccccc1 (some centres not stated),,,0.02,,,
CCOC(=O)[C@H](C)NP(=O)(OC[C@H]1O[C@@H](n2cnc3c(OCCF)nc(N)nc32)[C@](C)(F)[C@@H]1O)Oc1ccccc1 (some centres not stated),,,0.027,,,
CCOC(=O)[C@H](C)NP(=O)(OC[C@H]1O[C@@H](n2cnc3c(SCC)nc(N)nc32)[C@](C)(F)[C@@H]1O)Oc1ccccc1 (some centres not stated),,,0.047,,,
CCOC(=O)[C@H](C)NP(=O)(OC[C@H]1O[C@@H](n2cnc3c(N4CCC4)nc(N)nc32)[C@](C)(F)[C@@H]1O)Oc1ccccc1 (some centres not stated),84,75,0.007,84,39,
CCOC(=O)[C@H](C)NP(=O)(OC[C@H]1O[C@@H](n2cnc3c(NC4CC4)nc(N)nc32)[C@](C)(F)[C@@H]1O)Oc1ccccc1 (some centres not stated),> 100,> 100,0.0098,> 100,45,
CCOC(=O)[C@H](C)NP(=O)(OC[C@H]1O[C@@H](n2cnc3c(NC4CCC4)nc(N)nc32)[C@](C)(F)[C@@H]1O)Oc1ccccc1 (some centres not stated),,,0.024,,,
CCOC(=O)[C@H](C)NP(=O)(OC[C@H]1O[C@@H](n2cnc3c(NC4CCCC4)nc(N)nc32)[C@](C)(F)[C@@H]1O)Oc1ccccc1 (some centres not stated),,,0.026,,,
CC(C)OC(=O)[C@H](C)NP(=O)(OC[C@H]1O[C@@H](n2cnc3c(O)nc(N)nc32)[C@](C)(F)[C@@H]1O)Oc1ccccc1 (some centres not stated),> 100,> 100,0.75,> 100,> 100,"EC90 (Hepatitis C virus [6]; Hepatitis C virus, Huh-7): 0.61 µM"
C[C@H](NP(=O)(OC[C@H]1O[C@@H](n2cnc3c(O)nc(N)nc32)[C@](C)(F)[C@@H]1O)Oc1ccccc1)C(=O)OC1CCCC1 (some centres not stated),> 100,> 100,0.18,> 100,> 100,"Activity (Hepatocyte): 0.04 mM; Activity (Huh-7): 0.06 mM; half-life [7]: > 24 h; half-life [8]: 15 h; Activity (CCRF-CEM [9]): Non-toxic; half-life [10]: 0.2 h; Activity (CCRF-CEM [11]): Non-toxic; EC90 (Hepatitis C virus [6]; Hepatitis C virus, Huh-7): 0.12 µM; Activity (HepG2 [12]): Non-toxic; Activity (HepG2 [13]): Non-toxic; half-life [14]: > 20 h"
C[C@H](NP(=O)(OC[C@H]1O[C@@H](n2cnc3c(O)nc(N)nc32)[C@](C)(F)[C@@H]1O)Oc1ccccc1)C(=O)OC1CCCCC1 (some centres not stated),> 100,> 100,0.446,> 100,> 100,
COC(=O)[C@H](C)NP(=O)(OC[C@H]1O[C@@H](n2cnc3c(OC)nc(N)nc32)[C@](C)(F)[C@@H]1O)Oc1ccccc1 (some centres not stated),> 100,71,0.0081,> 100,20,
CCOc1nc(N)nc2c1ncn2[C@@H]1O[C@H](COP(=O)(N[C@@H](C)C(=O)OC)Oc2ccccc2)[C@@H](O)[C@@]1(C)F (some centres not stated),> 100,> 100,0.016,> 100,74,"EC90 (Hepatitis C virus [6]; Hepatitis C virus, Huh-7): 0.016 µM"
CCOc1nc(N)nc2c1ncn2[C@@H]1O[C@H](COP(=O)(N[C@@H](C)C(=O)OC(C)C)Oc2ccccc2)[C@@H](O)[C@@]1(C)F (some centres not stated),59,> 100,0.02,> 100,93,
CCCOc1nc(N)nc2c1ncn2[C@@H]1O[C@H](COP(=O)(N[C@@H](C)C(=O)OC)Oc2ccccc2)[C@@H](O)[C@@]1(C)F (some centres not stated),39,45,0.0146,39,17,
CCCOc1nc(N)nc2c1ncn2[C@@H]1O[C@H](COP(=O)(N[C@@H](C)C(=O)OC(C)C)Oc2ccccc2)[C@@H](O)[C@@]1(C)F (some centres not stated),49,> 100,0.033,> 100,44,
COC(=O)[C@H](C)NP(=O)(OC[C@H]1O[C@@H](n2cnc3c(N4CCC4)nc(N)nc32)[C@](C)(F)[C@@H]1O)Oc1ccccc1 (some centres not stated),> 100,> 100,0.09,> 100,75,"Activity (Hepatocyte): 0.05 mM; Activity (Huh-7): 0.16 mM; half-life [7]: 11.6 h; half-life [8]: > 20 h; Activity (CCRF-CEM [9]): Non-toxic; half-life [10]: 0.4 h; Activity (CCRF-CEM [11]): Non-toxic; EC90 (Hepatitis C virus [6]; Hepatitis C virus, Huh-7): 0.04 µM; Activity (HepG2 [12]): Non-toxic; Activity (HepG2 [13]): Non-toxic; half-life [14]: > 20 h"
CC(C)OC(=O)[C@H](C)NP(=O)(OC[C@H]1O[C@@H](n2cnc3c(N4CCC4)nc(N)nc32)[C@](C)(F)[C@@H]1O)Oc1ccccc1 (some centres not stated),53,100,0.019,74,74,
COC(=O)[C@H](C)NP(=O)(OC[C@H]1O[C@@H](n2cnc3c(NC4CC4)nc(N)nc32)[C@](C)(F)[C@@H]1O)Oc1ccccc1 (some centres not stated),> 100,> 100,0.0082,> 100,34,
CC(C)OC(=O)[C@H](C)NP(=O)(OC[C@H]1O[C@@H](n2cnc3c(NC4CC4)nc(N)nc32)[C@](C)(F)[C@@H]1O)Oc1ccccc1 (some centres not stated),96,> 100,0.0088,98,> 100,
COc1nc(N)nc2c1ncn2[C@@H]1O[C@H](CO[P@](=O)(N[C@@H](C)C(=O)OC(C)C)Oc2ccccc2)[C@@H](O)[C@@]1(C)F,,,0.027,,,"Activity (Hepatocyte): 0.14 mM; Activity (Huh-7): 0.07 mM; EC90 (Hepatitis C virus [6]; Hepatitis C virus, Huh-7): 0.038 µM"
C[C@@]1(F)[C@H](O)[C@@H](CO)O[C@H]1n1cnc2c(O)nc(N)nc21,,,,,,EC90 (Hepatitis C virus [15]): 69.2 µM
COc1nc(N)nc2c1ncn2[C@@H]1O[C@H](COP(=O)(N[C@@H](C)C(=O)OC(C)C)Oc2ccccc2)[C@@H](O)[C@@]1(C)F (stereo in doubt; 23),> 100,62,,> 100,> 100,Activity (Hepatocyte): 0.12 mM; Activity (Huh-7): 0.12 mM; half-life [7]: > 24 h; half-life [8]: 14 h; Activity (CCRF-CEM [9]): Non-toxic; EC90 (Hepatitis C virus [3]): 0.02 µM; half-life [10]: 0.2 h; Activity (CCRF-CEM [11]): Non-toxic; EC90 (Hepatitis C virus [6]): 0.024 µM; Activity (HepG2 [12]): Non-toxic; Activity (HepG2 [13]): Non-toxic; half-life [14]: > 20 h
COc1nc(N)nc2c1ncn2[C@@H]1O[C@H](COP(=O)(N[C@@H](C)C(=O)OC(C)C)Oc2ccccc2)[C@@H](O)[C@@]1(C)F (stereo in doubt; 23b),,,,,,Activity (Hepatocyte): 0.44 mM; Activity (Huh-7): 0.17 mM; EC90 (Hepatitis C virus [3]): 0.008 µM; EC90 (Hepatitis C virus [6]): 0.011 µM
C[C@@]1(F)[C@H](O)[C@@H](COP(=O)(O)OP(=O)(O)OP(=O)(O)O)O[C@H]1n1cnc2c(=O)[nH]c(N)nc21 [PSI-352666],,,,,,IC50 [16]: 5.94 µM

# Source: ChEMBL document CHEMBL1671830, “Discovery of PSI-353661, a Novel Purine Nucleotide Prodrug for the Treatment of HCV Infection” (ACS Med Chem Lett, 2011)
